According to US8071797B2 (priority 2008, dated 2011):
pIC50: −log10 of the molar value.

Key:
[1] = biological target: T1, HCV polymerase (NS5B570n-Con1) (Hepatitis C virus genotype 1b, UniProt Q9WMX2); assay: HCV NS5B RNA polymerase activity assay; format: biochemical, HCV Con1 strain
T1 construct: contains a 21 amino acid deletion at the C-terminus relative to the full-length HCV polymerase; 6-histidine (N); made in house; host or cells: E. coli BL21 (DE) pLysS
In short: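 His6-tagged NS5B Con1 (genotype 1b, 21-aa C-terminal deletion; 20 nM) copied 20 nM cIRES RNA template with [3H]UTP plus 1 μM ATP, CTP and GTP in pH 8.0 Tris buffer with 4 mM MgCl2 and DTT, 2 h at 30 °C. TCA-precipitated RNA counted by scintillation. IC50 from four-parameter fit versus no-compound control, no-enzyme background subtracted.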

[2] = test system: HCV replicon cells (2209-23), genotype 1b replicon in Huh7 cells; assay: HCV replicon assay (Renilla luciferase reporter); format: cell-based, HCV genotype 1b; settings: Hepatitis C virus, Huh-7, 72 h; cell line 2209-23, three days incubation
[3] = in vitro; settings: human
[4] = test system: HCV; settings: monotherapy; cited from earlier work
[5] = IC50 NS5B polymerase assay, Table I
[6] = Polymerase Assay IC50, Table II

Row | SMILES | pIC50 [1, 5] | pIC50 [1, 6] | pIC50 [2] | melting point | CC50 [3] | patients in whom serum amino transferase levels are reduced to normal [4]
1 | CNC(=O)c1c(-c2ccc(Nc3ccccc3)cc2)oc2cc(N(CCO)S(C)(=O)=O)c(OC)cc12 [Compound I-1, 6-[(2-hydroxy-ethyl)-methanesulfonyl-amino]-5-methoxy-2-(4-phenylamino-phenyl)-benzofuran-3-carboxylic acid methylamide] | 7.37 | 8.30 | 7.37 | 144.6 to 146.9 °C | 30.6 µM | –
2 | CNC(=O)c1c(-c2ccc(Oc3ccc(F)cc3)cc2)oc2cc(N(CCCN)S(C)(=O)=O)c(C3CC3)cc12 [Compound I-69] | 7.74 | 7.74 | 8.00 | – | 4.6 µM | –
3 | CNC(=O)c1c(-c2ccc(Oc3ccc(F)cc3)cc2)oc2cc(N(CCS(C)(=O)=O)S(C)(=O)=O)c(C3CC3)cc12 [Compound I-83, 5-cyclopropyl-2-[4-(4-fluoro-phenoxy)-phenyl]-6-[methanesulfonyl-(2-methanesulfonyl-ethyl)-amino]-benzofuran-3-carboxylic acid methylamide] | 7.54 | – | – | 158 to 160 °C | – | –
4 | CNC(=O)c1c(-c2ccc(Oc3ccccc3)cc2)oc2cc(N3CCCCS3(=O)=O)c(C3CC3)cc12 [Compound I-93] | 7.15 | – | – | 197 to 199 °C | – | –
5 | CNC(=O)c1c(-c2ccc(Oc3ccccc3)cc2)oc2cc(N3CCNS3(=O)=O)c(C3CC3)cc12 [Compound I-102, 5-Cyclopropyl-6-(1,1-dioxo-1λ^6-[1,2,5]thiadiazolidin-2-yl)-2-(4-phenoxy-phenyl)-benzofuran-3-carboxylic acid methylamide] | 7.70 | – | – | 183.4 to 184.5 °C | – | –
6 | CNC(=O)c1c(-c2ccc(Oc3ccc(F)cc3)cc2)oc2cc(C(C)=O)c(OC)cc12 [Compound I-104] | 6.86 | – | – | 207 to 209 °C | – | –
7 | CNC(=O)c1c(-c2ccc(Oc3ccccc3)cc2)oc2cc(N3CCN(C)S3(=O)=O)c(C3CC3)cc12 [Compound I-105, 5-Cyclopropyl-6-(5-methyl-1,1-dioxo-1λ^6-[1,2,5]thiadiazolidin-2-yl)-2-(4-phenoxy-phenyl)-benzofuran-3-carboxylic acid methylamide] | 7.39 | – | – | 105 to 107 °C | – | –
8 | CNC(=O)c1c(-c2ccc(Oc3ccc(F)cc3)cc2)oc2cc(N(CC(N)CO)S(C)(=O)=O)c(C3CC3)cc12.Cl (stereo not shown) [Compound I-107] | 7.72 | – | – | 178 to 180 °C | – | –
9 | CNC(=O)c1c(-c2ccc(Oc3ccc(F)cc3)cc2)oc2cc(N(CCCNS(C)(=O)=O)S(C)(=O)=O)c(C3CC3)cc12 [Compound I-116] | – | – | 8.40 | – | – | –
10 | CNC(=O)c1c(-c2ccc(Nc3ccccn3)cc2)oc2cc(N(CCO)S(C)(=O)=O)c(OC)cc12 [Compound I-123] | 6.81 | – | – | 241 to 243 °C | – | –
11 | NC(=O)c1ncn([C@@H]2O[C@H](CO)[C@@H](O)[C@H]2O)n1 [ribavirin, 1-((2R,3R,4S,5R)-3,4-Dihydroxy-5-hydroxymethyl-tetrahydro-furan-2-yl)-1H-[1,2,4]triazole-3-carboxylic acid amide] | – | – | – | – | – | 40%
